The values that follow come from patent US9963462B2 (priority 2015, dated 2018).

Test [1] deals with SNAP-hSPR (sepiapterin reductase, SPR) (Homo sapiens, UniProt P35270). Nature of the test: biochemical. The class given is binding. Conditions: terbium labelled SNAP-hSPR / SSZ labelled SNAP-EGFP; read-out: hTR-FRET IC50.
Test [2] relates to BH4 production in human peripheral blood mononuclear cells (PBMCs). Nature of the test: hPBMC assay, inhibition of BH4 production by LC-MS (anti-CD3/anti-CD28 stimulated). The class given is cell-based. Conditions: PBMC, read-out: hPBMC IC50.

Sequence of SNAP-hSPR (sepiapterin reductase, SPR) (P35270 whole entry): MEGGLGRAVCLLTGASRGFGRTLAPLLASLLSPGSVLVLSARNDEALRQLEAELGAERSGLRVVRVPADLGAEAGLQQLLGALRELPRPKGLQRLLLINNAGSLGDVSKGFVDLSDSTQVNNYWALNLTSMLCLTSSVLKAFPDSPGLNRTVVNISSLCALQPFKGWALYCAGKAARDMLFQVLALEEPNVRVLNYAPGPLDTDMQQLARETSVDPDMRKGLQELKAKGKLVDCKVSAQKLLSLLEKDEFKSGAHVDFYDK

What is called IC50 is the midpoint of a concentration-inhibition curve. For the compound `Cc1c(C(=O)N2CCN(c3ncc(-c4ccccc4C#N)o3)CC2)cnn1-c1nn2cccc2c(=O)[nH]1` [Q-1203], the IC50 in test [1] was determined as 6 nM; in test [2] it was 180 nM.

In the case of `Cc1c(C(=O)N2CCCN(C3CC3)CC2)cnn1-c1nn2cccc2c(=O)[nH]1` [Q-1205], the IC50 worked out at 3 nM in test [1] and 35 nM in test [2].

With `Cc1c(C(=O)N2CCc3nc(-c4cccnc4)sc3C2)cnn1-c1nn2cccc2c(=O)[nH]1` [Q-1206], the IC50 in test [1] was 1 nM; in test [2] it was 70 nM.

On to `CCCC(=O)C1CCN(C(=O)c2cnn(-c3nn4cccc4c(=O)[nH]3)c2C)CC1` [Q-1207], for which the results for the IC50 in test [1] and in test [2] were 1 nM and 29 nM, respectively.

Take `Cc1c(C(=O)N2CCC(C(=O)C3CC3)CC2)cnn1-c1nn2cccc2c(=O)[nH]1` [Q-1208]: the 50% inhibitory concentration (IC50) in test [1] amounted to 1 nM; in test [2], 61 nM.

Take `Cc1c(C(=O)N2CCC3(CCC3=O)CC2)cnn1-c1nn2cccc2c(=O)[nH]1` [Q-1209]: the values for the IC50 in test [1] and in test [2] were 1 nM and 920 nM, respectively.

As to `Cc1c(C(=O)N2CCN(c3nc(-c4ccc(C#N)cc4)cs3)CC2)cnn1-c1nn2cccc2c(=O)[nH]1` [Q-1210], the values for the IC50 in test [1] and in test [2] were 2 nM and 84 nM, respectively.

Regarding `Cc1c(C(=O)N2CCN(c3ncc(-c4ccc(C#N)cc4)s3)CC2)cnn1-c1nn2cccc2c(=O)[nH]1` [Q-1211], the IC50 in test [1] worked out at 10 nM; in test [2] it was 160 nM.

On to `Cc1c(C(=O)N2CCN(c3ncc(-c4cccc(C#N)c4)o3)CC2)cnn1-c1nn2cccc2c(=O)[nH]1` [Q-1212], for which the IC50 in test [1] came out at 1 nM; in test [2], 13 nM.

On to `Cc1c(C(=O)N2CCN(C(=O)C3CC3)CC2)cnn1-c1nn2cccc2c(=O)[nH]1` [Q-1213], for which the IC50 in test [1] is 3 nM; in test [2] it was 890 nM.

Take `CCC(=O)N1CCN(C(=O)c2cnn(-c3nn4cccc4c(=O)[nH]3)c2C)CC1` [Q-1214]: the IC50 in test [1] is 6 nM; in test [2], 1000 nM.

For `CC(=O)C1(c2ccccc2)CCN(C(=O)c2cnn(-c3nn4cccc4c(=O)[nH]3)c2C)CC1` [Q-1215], the results for the IC50 in test [1] and in test [2] were 1 nM and 17 nM, respectively.

Consider `Cc1c(C(=O)N2CCN(CC(F)(F)F)c3ccccc32)cnn1-c1nn2cccc2c(=O)[nH]1` [Q-1216], for which the values for the IC50 in test [1] and in test [2] were 1 nM and 46 nM, respectively.

Consider `Cc1c(C(=O)N2CCC2c2cccc(F)n2)cnn1-c1nn2cccc2c(=O)[nH]1` (stereo not shown) [Q-1217], for which the IC50 in test [1] turned out to be 3 nM; in test [2], 270 nM.

For the compound `Cc1c(C(=O)N2CCCN(C(C)C(F)(F)F)CC2)cnn1-c1nn2cccc2c(=O)[nH]1` (stereo not shown) [Q-1218], the IC50 in test [1] worked out at 3 nM; in test [2], 130 nM.

As for `Cc1c(C(=O)N2CCC(n3cccc3C#N)CC2)cnn1-c1nn2cccc2c(=O)[nH]1` [Q-1219], the IC50 in test [1] turned out to be 1 nM; in test [2] it was 79 nM.

In the case of `Cc1c(C(=O)N2CCC3(CCCCC3=O)CC2)cnn1-c1nn2cccc2c(=O)[nH]1` [Q-1220], the 50% inhibitory concentration (IC50) in test [1] is 1 nM; in test [2] it was 22 nM.

For the compound `O=C(c1cn(-c2nn3cccc3c(=O)[nH]2)nn1)N1CCN(C2CC2)CC1` [Q-1221], the IC50 in test [1] was 1 nM; in test [2], 37 nM.

As for `O=C(c1cn(-c2nn3cccc3c(=O)[nH]2)nn1)N1CCC(C2CC2)CC1` [Q-1222], the values for the IC50 in test [1] and in test [2] were 1 nM and 25 nM, respectively.

`O=C(c1cn(-c2nn3cccc3c(=O)[nH]2)nn1)N1CCN(CC(F)(F)F)CC1` [Q-1223]: the IC50 in test [1] was found to be 3 nM; in test [2], 24 nM.

On to `O=C(c1cn(-c2nn3cccc3c(=O)[nH]2)nn1)N1CC(N2CCC(F)(F)C2)C1` [Q-1224], for which the results for the IC50 in test [1] and in test [2] were 9 nM and 370 nM, respectively.

For `Cc1c(C(=O)N2CC3CC(C2)N3CC(F)(F)F)nnn1-c1nn2cccc2c(=O)[nH]1` [Q-1225], the IC50 in test [1] stood at 1 nM; in test [2], 29 nM.

For `O=C(c1cn(-c2nn3cccc3c(=O)[nH]2)nn1)N1CC2CC(C1)N2CC(F)(F)F` [Q-1226], the IC50 in test [1] came out at 7 nM; in test [2] it was 410 nM.

`Cc1c(C(=O)N2CCC(C(=O)CCC(F)(F)F)CC2)cnn1-c1nn2cccc2c(=O)[nH]1` [Q-1227]: the half-maximal inhibitory concentration (IC50) in test [1] was 1 nM; in test [2], 14 nM.

Consider `Cc1c(C(=O)N2CCC(C(CO)C(F)(F)F)CC2)cnn1-c1nn2cccc2c(=O)[nH]1` (stereo not shown) [Q-1228], for which the IC50 in test [1] stood at 1 nM; in test [2], 17 nM.

As to `Cc1c(C(=O)N2CCC(n3ccnc3C(F)(F)F)CC2)cnn1-c1nn2cccc2c(=O)[nH]1` [Q-1229], the results for the IC50 in test [1] and in test [2] were 2 nM and 100 nM, respectively.

For the compound `Cc1c(C(=O)N2CCN(c3ncc(-c4ccccc4F)s3)CC2)cnn1-c1nn2cccc2c(=O)[nH]1` [Q-1230], the IC50 in test [1] came to 10 nM; in test [2] it was 180 nM.

For `Cc1c(C(=O)N2CCN(c3ncc(-c4ccnc(F)c4)s3)CC2)cnn1-c1nn2cccc2c(=O)[nH]1` [Q-1231], the IC50 in test [1] stood at 3 nM; in test [2], 62 nM.

For `Cc1c(C(=O)N2CCC(n3ccnc3Cl)CC2)cnn1-c1nn2cccc2c(=O)[nH]1` [Q-1232], the IC50 was 1 nM in test [1] and 56 nM in test [2].

In the case of `Cc1c(C(=O)N2CCC(n3cccc3Cl)CC2)cnn1-c1nn2cccc2c(=O)[nH]1` [Q-1233], the figures for the half-maximal inhibitory concentration (IC50) in test [1] and in test [2] were 1 nM and 23 nM, respectively.

With `Cc1c(C(=O)N2CCC(n3cnc(C(F)(F)F)c3)CC2)cnn1-c1nn2cccc2c(=O)[nH]1` [Q-1234], the IC50 in test [1] amounted to 2 nM; in test [2] it was 27 nM.

Regarding `Cc1c(C(=O)N2CCN(c3ncc(-c4ccncc4)s3)CC2)cnn1-c1nn2cccc2c(=O)[nH]1` [Q-1235], the IC50 in test [1] was 5 nM; in test [2], 18 nM.

`Cc1c(C(=O)N2CCN(c3ncc(-c4ccnc(Cl)c4)s3)CC2)cnn1-c1nn2cccc2c(=O)[nH]1` [Q-1236]: the concentration for half-maximal inhibition (IC50) was 6 nM in test [1] and 48 nM in test [2].

Regarding `O=C(c1cn(-c2nn3cccc3c(=O)[nH]2)nn1)N1CC2(C1)CC(F)(F)C2` [Q-1237], the IC50 in test [1] came out at 3 nM; in test [2], 700 nM.

Regarding `Cc1c(C(=O)N2CCC(n3cccc3C(F)(F)F)CC2)cnn1-c1nn2cccc2c(=O)[nH]1` [Q-1238], the IC50 turned out to be 2 nM in test [1] and 79 nM in test [2].

`Cc1nn(-c2nn3cccc3c(=O)[nH]2)cc1C(=O)N1CC2(C1)CC(F)(F)C2` [Q-1239]: the IC50 is 2 nM in test [1] and 27 nM in test [2].

With `Cc1c(C(=O)N2CCN(C3CC3C(F)(F)F)CC2)cnn1-c1nn2cccc2c(=O)[nH]1` (stereo not shown) [Q-1240], the IC50 in test [1] was 1 nM; in test [2], 35 nM.

Consider `Cc1nn(-c2nn3cccc3c(=O)[nH]2)cc1C(=O)N1CCN(C2CCC2)CC1` [Q-1241], for which the IC50 came out at 2 nM in test [1] and 20 nM in test [2].

As for `Cc1nn(-c2nn3cccc3c(=O)[nH]2)cc1C(=O)N1CC(N2CCC(F)(F)C2)C1` [Q-1243], the 50% inhibitory concentration (IC50) in test [1] worked out at 20 nM; in test [2], 51 nM.

As to `O=C(c1cn(-c2nn3cccc3c(=O)[nH]2)nn1)N1CCN(C2CCC2)CC1` [Q-1244], the values for the IC50 in test [1] and in test [2] were 1 nM and 36 nM, respectively.

`O=C(c1cnn(-c2nn3cccc3c(=O)[nH]2)c1)N1CCN2CC(F)(F)C[C@H]2C1` [Q-1246]: the IC50 turned out to be 4 nM in test [1] and 100 nM in test [2].

As for `O=C(c1cn(-c2nn3cccc3c(=O)[nH]2)nn1)N1CCN(C2CCC2(F)F)CC1` (stereo not shown) [Q-1247], the results for the IC50 in test [1] and in test [2] were 2 nM and 150 nM, respectively.

Take `Cc1c(C(=O)N2CCN(C3CC3F)CC2)cnn1-c1nn2cccc2c(=O)[nH]1` (stereo not shown) [Q-1249]: the figures for the IC50 in test [1] and in test [2] were 2 nM and 46 nM, respectively.

Regarding `Cc1c(C(=O)N2CCC(n3ccc(C#N)c3)CC2)cnn1-c1nn2cccc2c(=O)[nH]1` [Q-1250], the IC50 in test [1] was found to be 1 nM; in test [2], 24 nM.

Consider `Cc1c(C(=O)N2CC(N3CCC(F)(F)C3)C2)cnn1-c1nc2[nH]ccc2c(=O)[nH]1` [Q-1254], for which the IC50 in test [1] is 100 nM; in test [2], 870 nM.

On to `Cc1c(C(=O)N2CC(N3CCC(F)(F)C3)C2)cnn1-c1nc2cc[nH]c2c(=O)[nH]1` [Q-1255], for which the IC50 is 100 nM in test [1] and 580 nM in test [2].

In the case of `Cc1c(C(=O)N2CCN(CC(F)(F)F)CC2)cnn1-c1nc2[nH]ccc2c(=O)[nH]1` [Q-1256], the 50% inhibitory concentration (IC50) in test [1] came out at 30 nM; in test [2], 330 nM.

For the compound `Cc1c(C(=O)N2CC3(C2)CC(F)(F)C3)cnn1-c1nc2cc[nH]c2c(=O)[nH]1` [Q-1259], the IC50 in test [1] is 100 nM; in test [2], 360 nM.

In the case of `Cc1c(C(=O)N2CCN(CC(F)(F)F)CC2)cnn1-c1nc2cc[nH]c2c(=O)[nH]1` [Q-1260], the IC50 was 30 nM in test [1] and 81 nM in test [2].

With `Cc1c(C(=O)N2CC3(C2)CC(F)(F)C3)cnn1-c1nc2[nH]ccc2c(=O)[nH]1` [Q-1263], the half-maximal inhibitory concentration (IC50) in test [1] turned out to be 100 nM; in test [2], 370 nM.

Regarding `Cc1c(C(=O)N2CCC2c2cncc(F)c2)cnn1-c1nn2cccc2c(=O)[nH]1` (stereo not shown) [Q-1269], the IC50 in test [1] is 5 nM; in test [2], 53 nM.

As for `Cc1c(C(=O)N2CCC(n3cccc3S(=O)(=O)C(F)(F)F)CC2)cnn1-c1nn2cccc2c(=O)[nH]1` [Q-1288], the figures for the IC50 in test [1] and in test [2] were 8 nM and 600 nM, respectively.

Consider `Cc1c(C(=O)N2CCC(n3ccc(S(=O)(=O)C(F)(F)F)c3)CC2)cnn1-c1nn2cccc2c(=O)[nH]1` [Q-1289], for which the IC50 in test [1] turned out to be 2 nM; in test [2], 70 nM.

As to `Cc1c(C(=O)N2CC3CC(C2)N3CC(F)(F)F)cnn1-c1nc2cc[nH]c2c(=O)[nH]1` [Q-1291], the 50% inhibitory concentration (IC50) turned out to be 200 nM in test [1] and 2400 nM in test [2].

Turning to `Cc1c(C(=O)N2CCC2c2ccc(F)cn2)cnn1-c1nn2cccc2c(=O)[nH]1` (stereo not shown) [Q-1301], the IC50 in test [1] was found to be 10 nM; in test [2], 820 nM.

For the compound `Cc1c(C(=O)N2CC3CC(C2)N3CC(F)(F)F)cnn1-c1nc2[nH]ccc2c(=O)[nH]1` [Q-1305], the IC50 amounted to 100 nM in test [1] and 1200 nM in test [2].
